Results: patent US20130183268A1, “DRUG COMBINATIONS WITH FLUORO-SUBSTITUTED OMEGA-CARBOXYARYL DIPHENYL UREA FOR THE TREATMENT AND PREVENTION OF DISEASES AND CONDITIONS” (BAYER HEALTHCARE LLC, priority 2010, published 2013)

What was measured:
[1] = Metabolite profile, incubation of [14C]regorafenib with liver microsomes (man); assay type: in vitro ADME; conditions: [14C]regorafenib 20 μM, liver microsomes 0.5 mg/mL, 60 min
Procedure: (§1) N-oxide (M-2), hydroxymethyl (M-3), de-methylated (M-4) and N-oxide-demethylated (M-5) metabolites of the fluoro-substituted diaryl urea of Formula (I) are shown below. They were identified as metabolites of regorafenib in vitro upon incubation with liver enzymes of various mammalian species (man, dog, rat, mouse). Studies reveal that its metabolites show high protein binding in man and animal species (data not shown). [table]

[2] = Metabolite profile, incubation of [14C]regorafenib with liver microsomes (dog); assay type: in vitro ADME, Beagle dog; conditions: [14C]regorafenib 20 μM, liver microsomes 0.5 mg/mL, 60 min
[3] = Metabolite profile, incubation of [14C]regorafenib with liver microsomes (rat); assay type: in vitro ADME, Wistar rat; conditions: [14C]regorafenib 20 μM, liver microsomes 0.5 mg/mL, 60 min
Procedure: as §1

[4] = Metabolite profile, incubation of [14C]regorafenib with liver microsomes (mouse); assay type: in vitro ADME, NMRI mouse; conditions: [14C]regorafenib 20 μM, liver microsomes 0.5 mg/mL, 60 min
Procedure: as §1

[5] = Pharmacokinetics in patients after 160 mg regorafenib co-precipitate tablet; conditions: for AUC Day 21 / Cmax Day 21: analyte in plasma, 160 mg regorafenib co-precipitate tablet daily, day 21, n = 9, geometric mean; for systemic exposure: colon cancer patients, 160 mg coprecipitate tablets daily for 21 days; for fold increase in Cmax / fold increase in the AUC: continuous qd dosing for 19 days, in comparison to the first dose; for Fold change AUC / Fold change Cmax: day 21 versus day 1
[6] = analyte in plasma after 160 mg regorafenib co-precipitate tablet, day 1, n = 9, geometric mean

| % of radioactivity, Man [1] | % of radioactivity, Beagle dog [2] | % of radioactivity, Wistar rat [3] | % of radioactivity, NMRI mouse [4] | AUC Day 1 [5, 6] | Cmax Day 1 [5, 6] | AUC Day 21 [5] | Cmax Day 21 [5] | systemic exposure [5] | fold increase in Cmax [5] | fold increase in the AUC [5] | Fold change AUC [5] | Fold change Cmax [5] | Structure (SMILES) |
| --- | --- | --- | --- | --- | --- | --- | --- | --- | --- | --- | --- | --- | --- |
| 29.7% | 3.6% | 5.4% | 26.9% | 24000 ng·h/mL | 764 ng/mL | 55400 ng·h/mL | 3570 ng/mL | very similar to regorafenib | 5 fold | 2 fold | 2.3 | 4.7 | CNC(=O)c1cc(Oc2ccc(NC(=O)Nc3ccc(Cl)c(C(F)(F)F)c3)c(F)c2)cc[n+]1[O-] [Example M-2, 4{4-[3-(4-chloro-3-trifluoromethylphenyl)-ureido]-3-fluorophenoxy}-1-hydroxy-pyridine-2-carboxylic acid methylamide] |
| 7.7% | 25.6% | 19% | 12% |  |  |  |  |  |  |  |  |  | O=C(Nc1ccc(Cl)c(C(F)(F)F)c1)Nc1ccc(Oc2ccnc(C(=O)NCO)c2)cc1F [Example M-3] |
|  |  |  |  |  | 75.5 ng/mL | 51800 ng·h/mL | 3140 ng/mL | very similar to regorafenib | 42 fold | 25 fold | 25.1 | 41.6 | NC(=O)c1cc(Oc2ccc(NC(=O)Nc3ccc(Cl)c(C(F)(F)F)c3)c(F)c2)cc[n+]1[O-] [Example M-5, 4{4-[3-(4-chloro-3-trifluoromethylphenyl)-ureido]-3-fluorophenoxy}-1-hydroxy-pyridine-2-carboxylic acid amide] |
